In publication PMC10064984, “Anti-cyclooxygenase, anti-glycation, and anti-skin aging effect of Dendrobium officinale flowers’ aqueous extract and its phytochemical validation in aging” (Frontiers in Immunology, 2023):
Values joined by “and” are separate entries in the source; they are usually repeats but may differ in a detail not shown here. Identical values can stand only once. Like-named read-outs stand apart in the source and are kept apart here. Values belong to the compound of their own block, whether it stands above or below them.

Assays:
DPPH· scavenging = type: biochemical; settings: mean ± SD, n = 3
[1] = Fluorescent AGEs formation in a BSA-fructose/glucose system; type: biochemical; settings: for IC50: mean ± SD, n = 3, read-out: BSA-glycation IC50; for inhibition of fluorescent AGEs formation (BSA-抗糖化), single replicate: individual replicate; for inhibition of fluorescent AGEs formation (BSA-抗糖化), 平均 (mean): mean of 3 replicates
Outline: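 Fluorescent AGE inhibition was measured in triplicate, correcting sample and control fluorescence for BSA-free blanks. Glycation used BSA incubated with D-fructose and D-glucose, with samples dissolved in DMSO:water (1:4).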

[2] = FRAP total antioxidant capacity; type: biochemical;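 also: colourimetric FRAP kit assay read as absorbance in 96-well plates, values as mM FeSO4 via standard curve, EC1 being sample concentration matching 1.0 mmol/L FeSO4, Trolox positive control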
[3] = Online UPLC-PDA-MS-ABTS·+ scavenging (postcolumn derivatisation); settings: within DOF extract
Description: Online identification of antioxidant components of DOF extract was performed using a UPLC system (Milford, MA, USA) consisting of a Waters photodiode array detector and a Waters postcolumn derivatisation system supplying fresh ABTS solution (UPLC-PDA-QDa-ABTS). […] The detection wavelengths were set at 280 and 734 nm, and the injection volume of the sample was 10 μl.
To detect radical scavengers, the UPLC system was coupled with a Waters pump, which supplied freshly prepared ABTS·+ solution into a reaction coil (15 m, 0.25 mm ID) with a flow rate of 0.2 ml/min at 37°C. Negative peaks were recorded based on a decrease of absorbance at 729 nm after the reaction of individual compounds with the ABTS·+ radical. For preliminary identification of compounds, a Waters Acquity QDa mass detector in negative ionisation mode was connected in series to PDA with the following parameters: electrospray ion source; cone voltage, 15 V; atomiser, N2; and scanning range, 100–800 m/z.

COX-2 = biological target: T1, COX-2 (Homo sapiens, UniProt P35354); assay: Anti-COX-2 assay (COX-2 Inhibitor Screening Kit); type: biochemical
T1 construct: purchased Beyotime S0168
T1 sequence (P35354 18-604): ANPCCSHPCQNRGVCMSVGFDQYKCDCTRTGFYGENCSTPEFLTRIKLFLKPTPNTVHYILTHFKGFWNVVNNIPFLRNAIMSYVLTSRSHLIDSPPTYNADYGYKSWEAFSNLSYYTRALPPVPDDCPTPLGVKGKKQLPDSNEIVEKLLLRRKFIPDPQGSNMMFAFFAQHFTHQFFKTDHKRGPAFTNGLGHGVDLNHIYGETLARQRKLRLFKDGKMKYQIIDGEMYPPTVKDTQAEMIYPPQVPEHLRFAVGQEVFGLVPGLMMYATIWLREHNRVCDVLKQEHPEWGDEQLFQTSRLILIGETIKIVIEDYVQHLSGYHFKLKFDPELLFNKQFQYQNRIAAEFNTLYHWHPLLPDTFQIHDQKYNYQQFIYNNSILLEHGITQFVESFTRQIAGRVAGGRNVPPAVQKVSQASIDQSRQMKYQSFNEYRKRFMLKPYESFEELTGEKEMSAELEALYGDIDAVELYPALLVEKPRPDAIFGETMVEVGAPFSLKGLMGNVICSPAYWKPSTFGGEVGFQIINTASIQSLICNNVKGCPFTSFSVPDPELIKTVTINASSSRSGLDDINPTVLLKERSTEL

[4] = ABTS·+ decolourisation capacity; type: biochemical; settings: mean ± SD, n = 3
Outline: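 IC50 values were derived graphically from dose-inhibition curves, with % inhibition calculated versus a buffer-only (0.2 M phosphate, pH 7.4) control. Each sample (200 μl) reacted for 10 min with 100 μl ABTS·+ reagent pre-set to A729 0.8 ± 0.05, then absorbance at 729 nm was measured in triplicate.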

[5] = lower part of sheet (compound series)

IC50 (DPPH· scavenging): 43.3 ± 1.75 µM
IC50 [1]: 222 ± 13.5 µM
COX-2 inhibition (in words) (COX-2): great COX-2 inhibition
inhibition at 3.125 µM (COX-2; 3.125 μM, single replicates): 23.1%
COX-2 inhibition (COX-2; 3.125 μM, single replicates, listed as T3, 3.125 µM): 13.73% and 18.58%
inhibition at 6.25 µM (COX-2; 6.25 μM, single replicates): 42.8%
COX-2 inhibition (COX-2; 6.25 μM, single replicates, listed as T3, 6.25 µM): 37.16%
COX-2 inhibition (COX-2; 12.5 μM, single replicates, listed as T3, 12.5 µM): 68.24% and 51.05% and 71.69%
inhibition at 25 µM (COX-2; 25 μM, single replicates): 78%
COX-2 inhibition (COX-2; 25 μM, single replicates, listed as T3, 25 µM): 72.08% and 76.61%
inhibition at 50 µM (COX-2; 50 μM, single replicates): 81.2%
COX-2 inhibition (COX-2; 50 μM, single replicates, listed as T3, 50 µM): 77.16% and 78.42%
inhibition at 100 µM (COX-2; 100 μM, single replicates): 81.5%
COX-2 inhibition (COX-2; 100 μM, single replicates, listed as T3, 100 µM): 79.28% and 81.06%
inhibition at 200 µM (COX-2; 200 μM, single replicates): 84.3%
COX-2 inhibition (COX-2; 200 μM, single replicates, listed as T3, 200 µM): 81.14% and 83.16%
IC50 [4]: 33.1 ± 0.37 µM
Compound: C[C@@H]1O[C@@H](OC[C@H]2O[C@@H](Oc3c(-c4ccc(O)c(O)c4)oc4cc(O)cc(O)c4c3=O)[C@H](O)[C@@H](O)[C@@H]2O)[C@H](O)[C@H](O)[C@H]1O [compound 24, Rutin]
FRAP EC1 [2, 5]: 205.0 ± 12.2 µM
FRAP EC1 ([2]; mean ± SD, n = 3): 205.0 ± 12.2 µM
online ABTS radical scavenging (size of negative peaks at 734 nm) [3]: strongest ABTS radical scavengers

IC50 (DPPH· scavenging): 24.7 ± 0.96 µM
IC50 [1]: 288 ± 17.9 µM
COX-2 inhibition (in words) (COX-2): great COX-2 inhibition
inhibition at 3.125 µM (COX-2; 3.125 μM, single replicates): 24.6%
COX-2 inhibition (COX-2; 3.125 μM, single replicates, listed as T11, 3.125 µM): 20.59% and 27.90%
COX-2 inhibition (COX-2; 6.25 μM, single replicates, listed as T11, 6.25 µM): 14.74% and 29.06% and 32.72%
inhibition at 12.5 µM (COX-2; 12.5 μM, single replicates): 58.4%
COX-2 inhibition (COX-2; 12.5 μM, single replicates, listed as T11, 12.5 µM): 54.43% and 66.15%
inhibition at 25 µM (COX-2; 25 μM, single replicates): 71.8%
COX-2 inhibition (COX-2; 25 μM, single replicates, listed as T11, 25 µM): 72.43% and 76.32%
inhibition at 50 µM (COX-2; 50 μM, single replicates): 73.1%
COX-2 inhibition (COX-2; 50 μM, single replicates, listed as T11, 50 µM): 74.00% and 78.80%
inhibition at 100 µM (COX-2; 100 μM, single replicates): 77.6%
COX-2 inhibition (COX-2; 100 μM, single replicates, listed as T11, 100 µM): 75.00% and 79.64%
inhibition at 200 µM (COX-2; 200 μM, single replicates): 75.5%
COX-2 inhibition (COX-2; 200 μM, single replicates, listed as T11, 200 µM): 78.98% and 87.56%
IC50 (COX-2; mean ± SD, n = 3, nd, not detected, read-out: COX-2 IC50): 12.5 ± 2.9 µM
IC50 (COX-2; supplement sheet COX, read-out: COX-2 IC50, single replicate): 13.5 µM and 9.23 µM and 14.8 µM
IC50 [4]: 28.4 ± 0.47 µM
Compound: O=C(O)CC(=O)OCC1OC(Oc2c(-c3ccc(O)c(O)c3)oc3cc(O)cc(O)c3c2=O)C(O)C(O)C1O (centres unmarked) [compound 27, Quercetin 3-O-(6″-malonyl-glucoside)]
inhibition of fluorescent AGEs formation (BSA-抗糖化), single replicate ([1]; 15.625 µM, listed as T11, 15.625 µM): 10.51% and 15.35% and 23.11%
inhibition of fluorescent AGEs formation (BSA-抗糖化), 平均 (mean) ([1]; 15.625 µM): 16.32%
inhibition of fluorescent AGEs formation (BSA-抗糖化), single replicate ([1]; 31.25 µM, listed as T11, 31.25 µM): 5.08% and 5.86% and 10.67%
inhibition of fluorescent AGEs formation (BSA-抗糖化), 平均 (mean) ([1]; 31.25 µM): 7.20%
inhibition of fluorescent AGEs formation (BSA-抗糖化), single replicate ([1]; 62.5 µM, listed as T11, 62.5 µM): 17.13% and 15.89% and 16.80%
inhibition of fluorescent AGEs formation (BSA-抗糖化), 平均 (mean) ([1]; 62.5 µM): 16.61%
inhibition of fluorescent AGEs formation (BSA-抗糖化), single replicate ([1]; 125 µM, listed as T11, 125 µM): 26.98% and 29.78% and 30.07%
inhibition of fluorescent AGEs formation (BSA-抗糖化), 平均 (mean) ([1]; 125 µM): 28.94%
inhibition of fluorescent AGEs formation (BSA-抗糖化), single replicate ([1]; 250 µM, listed as T11, 250 µM): 45.50% and 47.09% and 47.76%
inhibition of fluorescent AGEs formation (BSA-抗糖化), 平均 (mean) ([1]; 250 µM): 46.78%
inhibition of fluorescent AGEs formation (BSA-抗糖化), single replicate ([1]; 500 µM, listed as T11, 500 µM): 61.62% and 62.32% and 63.30%
inhibition of fluorescent AGEs formation (BSA-抗糖化), 平均 (mean) ([1]; 500 µM): 62.41%
inhibition of fluorescent AGEs formation (BSA-抗糖化), single replicate ([1]; 1000 µM, listed as T11, 1000 µM): 77.56% and 77.94% and 77.85%
inhibition of fluorescent AGEs formation (BSA-抗糖化), 平均 (mean) ([1]; 1000 µM): 77.78%
inhibition of fluorescent AGEs formation (BSA-抗糖化), single replicate ([1]; 2000 µM, listed as T11, 2000 µM): 88.53% and 88.63% and 88.83%
inhibition of fluorescent AGEs formation (BSA-抗糖化), 平均 (mean) ([1]; 2000 µM): 88.66%
inhibition of fluorescent AGEs formation (BSA-抗糖化), single replicate ([1]; 4000 µM (series head 'T9 4000µM', 2-fold dilutions), listed as T11): 94.35% and 94.74% and 94.79%
inhibition of fluorescent AGEs formation (BSA-抗糖化), 平均 (mean) ([1]; 4000 µM): 94.62%
FRAP EC1 [2, 5]: 826.7 ± 98.5 µM
online ABTS radical scavenging (size of negative peaks at 734 nm) [3]: strongest ABTS radical scavengers
